Test results from ChEMBL document CHEMBL1156844, “Inhibition of neuraminidase activity by polyphenol compounds isolated from the roots of Glycyrrhiza uralensis” (Bioorg Med Chem Lett, 2010).
pIC50, pKi: −log10 of the molar value.

Tests used:
[1] = Inhibition of Spanish flu (A/Bervig_Mission/1/18) neuraminidase; design: species or system Influenza A virus (A/Brevig Mission/1/1918(H1N1))
[2] = Inhibition of Spanish flu (A/Bervig_Mission/1/18) neuraminidase by noncompetitive inhibition assay; design: species or system Influenza A virus (A/Brevig Mission/1/1918(H1N1))
[3] = tested on: Influenza A virus (A/Brevig Mission/1/1918(H1N1)); assay: Inhibition of Spanish flu (A/Bervig_Mission/1/18) neuraminidase at 200 uM

SMILES	pIC50 [1]	pKi [2]	inhibition [3] [%]
O=C1C[C@@H](c2ccc(O[C@@H]3O[C@H](CO)[C@@H](O)[C@H](O)[C@H]3O)cc2)Oc2cc(O)ccc21 [LIQUIRITIN]	4.08	3.91	
COc1ccc(-c2coc3cc(O[C@@H]4O[C@H](CO)[C@@H](O)[C@H](O)[C@H]4O)ccc3c2=O)cc1			30
O=C1C[C@@H](c2ccc(O[C@@H]3O[C@H](CO)[C@@H](O)[C@H](O)[C@H]3O[C@H]3OC[C@@](O)(CO)[C@@H]3O)cc2)Oc2cc(O)ccc21 [LIQUIRITIN APIOSIDE]	4.74	4.69	
COc1c(CC=C(C)C)c(O)cc2oc(=O)c3c4ccc(O)cc4oc3c12 [GLYCYROL]	5.51	5.54	
COc1cc(O)ccc1C(=O)/C=C/c1ccc(O)cc1	4.61	4.70	
COc1cc2c(c(OC)c1CC=C(C)C)C[C@H](c1ccc(O)cc1O)CO2			20
COc1c(CC=C(C)C)c(O)cc2c1C[C@H](c1ccc(O)cc1O)CO2			20
O=C1C[C@@H](c2ccc(O)cc2)Oc2cc(O)ccc21 [LIQUIRTIGENIN]	4.33	4.48	
CC(C)=CCc1c(O)cc2oc(-c3ccc(O)cc3)c(O)c(=O)c2c1O [LICOFLAVONOL]	4.69	4.48	
O=C(/C=C/c1ccc(O[C@@H]2O[C@H](CO)[C@@H](O)[C@H](O)[C@H]2O[C@H]2OC[C@@](O)(CO)[C@@H]2O)cc1)c1ccc(O)cc1O [ISOLIQUIRITIN APIOSIDE]	4.89	4.85	
COc1cc(O)c2c(=O)c(OC)c(-c3ccc(O)cc3)oc2c1 [KUMATAKENIN]	4.44	4.04	
O=C(/C=C/c1ccc(O[C@@H]2O[C@H](CO)[C@@H](O)[C@H](O)[C@H]2O)cc1)c1ccc(O)cc1O [ISOLIQUIRITIN]	3.91	4.03	
COc1c(CC=C(C)C)c(O)cc2oc(-c3ccc(O)cc3O)cc12 [LICOCOUMARONE]	4.56	4.92	
COc1c2c(cc3oc(=O)c4c5ccc(O)cc5oc4c13)OC(C)(C)CC2 [ISOGLYCYROL]	4.03	4.11	
CCOC(=O)C1=C[C@@H](OC(CC)CC)[C@H](NC(C)=O)[C@@H](N)C1 [OSELTAMIVIR]	5.80		
COc1cc2oc(=O)c(-c3ccc(O)cc3O)cc2c(OC)c1CC=C(C)C			10
COc1c2c(cc3oc(=O)c(-c4ccc(O)cc4O)cc13)OC(C)(CO)CC2 (stereo unspecified)			10
O=C(/C=C/c1ccc(O)cc1)c1ccc(O)cc1O [ISOLIQUIRITIGENIN]	5.05	5.00	
COc1cc2c(c(OC)c1CC=C(C)C)C(=O)[C@H](c1ccc(O)c(CC=C(C)C)c1O)CO2			30
